Assay results reported in PubChem BioAssay AID732 (Emory University Molecular Libraries Screening Center, 2007).
Calls of active or inactive are those of the source. The rule behind the calls is not given here.

System: in vivo angiogenesis, blood vessel count
Assay: angiogenesis inhibition in living animals, in vivo study, HTS (AID 732);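 note: zebrafish embryos dosed at one day post fertilization; 0% = reference inhibitor and 100% = plate mean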
Settings: active compounds read low;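 tested at 30 µM in the well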

Compound | vessel count % control
COc1ccc(/C=C/C(=O)Nc2ccccc2C(=O)O)cc1OC | 100% (inactive)
Cc1cc(O)c2c(c1)C(=O)c1cc(O)cc(O)c1C2=O | 87.5% (inactive)
CCCCCCCC/C=C\CCCCCCCC(=O)NCCc1ccc(O)c(O)c1 | 115% (inactive)
O=c1[nH]c2ccccc2n1CCCN1CCC(n2c(=O)[nH]c3cc(Cl)ccc32)CC1 | 83.8% (inactive)
CNC(=O)c1cc2c(cn1)[nH]c1ccccc12 | 101% (inactive)
NC(N)=N/N=C/c1c(Cl)cccc1Cl | 112% (inactive)
Cc1ccc(N(CC2=NCCN2)c2cccc(O)c2)cc1 | 77.7% (inactive)
O=C1c2c(O)cc(O)cc2OC(c2ccc(O)c(O)c2)C1O (stereo not given) | 80.8% (inactive)
CNCCC(Oc1ccc(C(F)(F)F)cc1)c1ccccc1 (stereo not given) | 74.2% (inactive)
C[N+]1(C)C2CCC1CC(OC(=O)c1c[nH]c3ccccc13)C2 (stereo not given) | 99.8% (inactive)
CCC(NC(C)C)C(O)c1ccc(O)c(O)c1 (stereo not given) | 85.9% (inactive)
CCCOc1ccccc1-c1nc2n[nH]nc2c(=O)[nH]1 | 119% (inactive)
CC(CCc1ccc(O)cc1)NCCc1ccc(O)c(O)c1 (stereo not given) | 92.8% (inactive)
C[C@]12CC[C@H]3[C@@H](CCC4C[C@H](O)CC[C@@]43C)[C@@H]1CC[C@@H]2O (stereo not given in full) | 106% (inactive)
O=C(/C=C/c1ccc(O)cc1)c1ccc(O)cc1O | 98.4% (inactive)
Cc1cc(C)c(/C=C2\C(=O)Nc3ccccc32)[nH]1 | 0% (inactive)
CNc1ccc2oc(C[C@H]3O[C@@]4(CC[C@H]3C)O[C@H]([C@H](C)C(=O)c3ccc[nH]3)[C@H](C)C[C@H]4C)nc2c1C(=O)O | 0% (inactive)
Nc1nc2c(ncn2COC(CO)CO)c(=O)[nH]1 | 84.5% (inactive)
O=c1cc(-c2ccccc2)[nH]c2nc(Cl)ccc12 | 0% (inactive)
COc1ccc2c(c1)c(CC(=O)O)c(C)n2Cc1ccc(F)cc1 | 106% (inactive)
CCCOC(=O)c1c(-c2ccccc2)nc(CC)c(C(=O)SCC)c1CCC | 98% (inactive)
Cc1nc2n(c(=O)c1CCN1CCC(c3noc4cc(F)ccc34)CC1)CCCC2 | 104% (inactive)
C[C@@](Cc1ccc(O)c(O)c1)(NN)C(=O)O | 94.6% (inactive)
C[N+]1(C)CCC(OC(=O)C(c2ccccc2)c2ccccc2)CC1 | 91.5% (inactive)
O=C(O)Cc1c[nH]c2ccc(O)cc12 | 92.5% (inactive)

Compound | vessel count % control
NC(=NCc1ccccc1)NC(=O)c1nc(Cl)c(N)nc1N | 107% (inactive)
COc1cc(CNC(=O)CCCCCCC(C)C)ccc1O | 128% (inactive)
CCCCCCCCCC(=O)NC(CN1CCOCC1)[C@H](O)c1ccccc1 (stereo not given in full) | 74% (inactive)
C[C@]12C=CC(=O)C=C1CC[C@@H]1C2=CC[C@]2(C)[C@@H](C(=O)CN3CCN(c4cc(N5CCCC5)nc(N5CCCC5)n4)CC3)CC[C@@H]12 | 101% (inactive)
CN1CCc2ccccc2Cc2[nH]c3ccccc3c2CC1 | 66.8% (inactive)
CCCN(CCC)C1Cc2cc(OC)c(OC)cc2C1 | 72.2% (inactive)
CCCCCCCCCCCCCCCC(=O)NCC(COP(=O)([O-])OCC[N+](C)(C)C)OCC (stereo not given) | 115% (inactive)
CCN(Cc1ccncc1)C(=O)C(CO)c1ccccc1 (stereo not given) | 114% (inactive)
CN(C)C(=O)C(CCN1CCC(O)(c2ccc(Cl)cc2)CC1)(c1ccccc1)c1ccccc1 | 126% (inactive)
CCCNC(=O)NS(=O)(=O)c1ccc(Cl)cc1 | 124% (inactive)
CC(C)CN(C)c1nc(N)c(C(=O)N=C(N)N)nc1Cl | 101% (inactive)
Cc1ccc2[nH]c(O)c(-c3[nH]c4ccc(Br)cc4c3N=O)c2c1 | 33.9%
N[C@@H](CCC(=O)N[C@H](CSN=O)C(=O)NCC(=O)O)C(=O)O | 97.4% (inactive)
O=Nc1c(-c2c(O)[nH]c3ccccc23)[nH]c2ccc(Br)cc12 | 67.5% (inactive)
O=C1Cc2c([nH]c3ccc(Br)cc23)-c2ccccc2N1 | 101% (inactive)
COc1ccc(CCN(C)CCCC(C#N)(c2cc(OC)c(OC)c(OC)c2)C(C)C)cc1OC (stereo not given) | 102% (inactive)
CCCCCCCCCCCCC/C=C/C(O)C(N)CO (stereo not given) | 112% (inactive)
CC(C)(C)c1o[nH]c(=O)c1CC(N)C(=O)O (stereo not given) | 106% (inactive)
O=C1OC(=O)C2C3CCC(O3)C12 (stereo not given) | 111% (inactive)
NCCCP(=O)(O)O | 91.6% (inactive)
N[C@@]1(C(=O)O)CC[C@@H](C(=O)O)C1 | 102% (inactive)
COc1ccccc1N1CCNCC1 | 96.7% (inactive)
CC(C)(C)c1ccc(S(=O)(=O)/C=C/C#N)cc1 | 0% (inactive)
N[C@@H](COP(=O)(O)O)C(=O)O | 105% (inactive)
CCOC(=O)C1=C(C)NC(C)=C(C(=O)OC)C1c1cccc([N+](=O)[O-])c1 (stereo not given) | 89.9% (inactive)

Compound | vessel count % control
C=CCN1CCc2cc(O)c(O)cc2C(c2ccccc2)C1 (stereo not given) | 114% (inactive)
COc1ccccc1OCC(O)CN1CCN(CC(=O)Nc2c(C)cccc2C)CC1 (stereo not given) | 97.9% (inactive)
Cn1ccc2cc3c(cc21)CCN3C(=O)Nc1cccnc1 | 88% (inactive)
CCCCCCC/C=C\CCCCCCCCC(=O)O | 106% (inactive)
Cn1c(=O)c2[nH]c(C3CCCC3)nc2n(C)c1=O | 104% (inactive)
CC/C(=C(\c1ccccc1)c1ccc(OCCN(C)C)cc1)c1ccccc1 | 64.7% (inactive)
CCC(C)N(C)C(=O)c1cc2ccccc2c(-c2ccccc2Cl)n1 (stereo not given) | 102% (inactive)
O=c1onc2cnc3ccccc3n12 | 95.4% (inactive)
CN1CCC23CCCC[C@H]2C1Cc1ccc(O)cc13 (stereo not given in full) | 100% (inactive)
CN(C)CC[C@@H](c1ccc(Br)cc1)c1ccccn1 | 102% (inactive)
O=c1cc(-c2ccc(O)cc2)oc2cc(O)cc(O)c12 | 87.4% (inactive)
Fc1ccc(C(OCCCc2cnc[nH]2)c2ccc(F)cc2)cc1 | 89.2% (inactive)
C1CCC(N=C(NC23CC4CC(CC(C4)C2)C3)N2CCOCC2)CC1 | 111% (inactive)
C=CCN1CC[C@]23c4c5ccc(O)c4O[C@H]2/C(=N/NC(=O)c2ccccc2)CC[C@@]3(O)[C@H]1C5 | 120% (inactive)
COc1ccccc1N1CCN(CCCCNS(=O)(=O)c2cccc3c(N(C)C)cccc23)CC1 | 67.5% (inactive)
O=C1C(c2c(O)[nH]c3ccc(Cl)cc23)=Nc2ccccc21 | 87.6% (inactive)
CCN(CC)C(=O)N[C@@H]1C[C@@H]2c3cccc4[nH]cc(c34)C[C@H]2N(C)C1 | 111% (inactive)
CN1CCN(C2Cc3ccccc3Sc3ccc(Cl)cc32)CC1 (stereo not given) | 120% (inactive)
NCCC1CCCC(CCN)N1 (stereo not given) | 115% (inactive)
N[C@H]1CONC1=O | 93% (inactive)
CC1(C)NC(=O)N(c2ccc([N+](=O)[O-])c(C(F)(F)F)c2)C1=O | 91.7% (inactive)
Oc1cc2c(c(Cl)c1O)CCNCC2c1ccccc1 (stereo not given) | 111% (inactive)
CC(N)(Cc1ccc(O)c(O)c1)C(=O)O (stereo not given) | 108% (inactive)
CC1(NCC(O)COc2cccc3[nH]ccc23)CCC(C(C)(C)NC(=O)CBr)CC1 (stereo not given) | 124% (inactive)
OCC1O[C@H](O)C(Cl)C(O)C1O (stereo not given in full) | 100% (inactive)

Compound | vessel count % control
CC1=C(C)C(=O)C(CCCCC#CCCCC#CCO)=C(C)C1=O | 88.8% (inactive)
CCSC(=N)N | 62.2% (inactive)
CN(C)c1ccc(/C=C2\C(=O)Nc3ccccc32)cc1 | 36.7%
CC(C)(C)NCC(O)c1ccccc1Cl (stereo not given) | 130% (inactive)
N#C/C(=C\c1ccc(O)c(O)c1)C(=O)NCCCc1ccccc1 | 137% (inactive)
NCCCS(=O)(=O)O | 144% (inactive)
CCNC(=O)C1OC(n2cnc3c(NCc4ccccc4)ncnc32)C(O)C1O (stereo not given) | 110% (inactive)
Nc1nc(N)c2nc(CNc3ccc(C(=O)NC(CCC(=O)O)C(=O)O)cc3)cnc2n1 (stereo not given) | 99.6% (inactive)
N[C@H](C(=O)O)c1cc(O)cc(O)c1 | 108% (inactive)
CN[C@H](CC(=O)O)C(=O)O | 86.7% (inactive)
CCCC1O[C@@H]2C[C@H]3[C@@H]4CCC5=CC(=O)C=C[C@]5(C)[C@H]4[C@@H](O)C[C@]3(C)[C@]2(C(=O)CO)O1 (stereo not given in full) | 120% (inactive)
Cc1ccccc1/C=C/C1=NCCN1 | 102% (inactive)
CCCCCCN(CCCCCC)C(=O)Cc1c(-c2ccc(F)cc2)[nH]c2ccccc12 | 126% (inactive)
CC(C)NCC(O)c1ccc(O)c(O)c1 (stereo not given) | 97.1% (inactive)
CC(C)(Sc1ccc(CCN(CCCCC2CCCCC2)C(=O)NC2CCCCC2)cc1)C(=O)O | 103% (inactive)
NCCCCNS(=O)(=O)c1cccc2c(Cl)cccc12 | 107% (inactive)
FC(F)(F)c1cc(CO[C@H]2CCCN[C@H]2c2ccccc2)cc(C(F)(F)F)c1 | 91.5% (inactive)
CCN(CC)CCOC(=O)c1ccc(N)cc1 | 112% (inactive)
O=C(O)[C@@H]1C[C@@H](C(=O)O)N1 | 99.6% (inactive)
O=C1NCC2(CCN(CCc3ccccc3)CC2)O1 | 110% (inactive)
O=c1[nH]c(=O)c2nc3ccccc3nc2[nH]1 | 129% (inactive)
CC1CCN=C(N)S1 (stereo not given) | 92% (inactive)
NCCCCCC(=O)O | 116% (inactive)
CC(C)[C@@]1(NC(=O)[C@@H]2C=C3c4cccc5[nH]cc(c45)C[C@H]3N(C)C2)O[C@@]2(O)[C@@H]3CCCN3C(=O)[C@H](Cc3ccccc3)N2C1=O | 94% (inactive)
O=C(/C=C/c1ccc(O)c(O)c1)OCCc1ccccc1 | 0% (inactive)
